According to US10294234B2, “HIV inhibitor compounds” (priority 2017, dated 2019):
pEC50: −log10 of the molar value. Read-outs that look alike come from different tables or passages of the source.

Test system: HIV-1 (IIIB) in MT-4 cells
Experiment: MT-4 HIV assay
Assay type: cell-based
Conditions: Human immunodeficiency virus 1, MT4, 120 h
Protocol: Compounds were tested in a high-throughput 384-well assay format for their ability to inhibit the replication of HIV-1 (IIIB) in MT-4 cells. Compounds were serially diluted (1:3) in DMSO on 384-well polypropylene plates and further diluted 200-fold into complete RPMI media (10% FBS, 1% P/S) using the Biotek Micro Flow and Agilent ECHO acoustic dispenser. Each plate contained up to 8 test compounds, with negative (No Drug Control) and 5 uM AZT positive controls. MT-4 cells were pre-infected with 10 uL of either RPMI (mock-infected) or a fresh 1:250 dilution of an HIV-1 (IIIB) concentrated virus stock. Infected and uninfected MT-4 cells were further diluted in complete RPMI media and added to each plate using a Micro Flow dispenser. After 5 days incubation in a humidified and temperature controlled incubator (37° C.), Cell Titer Glo (Promega) was added to the assay plates to quantify the amount of luciferase.

[1] = HIV-1 (IIIB), MT-4 cells, 5 days, Cell Titer Glo, read-out: EC50

SMILES: COC(=O)N[C@H](C(=O)N[C@@H](Cc1ccc(C#Cc2ccc(N3CC4(C)CN(C5COC5)CC(C)(C3)C4=O)nc2)cc1)[C@@H](O)CN(Cc1c(F)cc(-c2cnn(C(F)F)c2)cc1F)NC(=O)[C@@H](NC(=O)OC)C(C)(C)C(F)(F)F)C(C)(C)C(F)(F)F [Example 62, Methyl ((5S,8S,9S,14S)-11-(4-(1-(difluoromethyl)-1H-pyrazol-4-yl)-2,6-difluorobenzyl)-8-(4-((6-(1,5-dimethyl-7-(oxetan-3-yl)-9-oxo-3,7-diazabicyclo[3.3.1]nonan-3-yl)pyridin-3-yl)ethynyl)benzyl)-16,16,16-trifluoro-9-hydroxy-15,15-dimethyl-3,6,13-trioxo-5-(1,1,1-trifluoro-2-methylpropan-2-yl)-2-oxa-4,7,11,12-tetraazahexadecan-14-yl)carbamate]
- pEC50: 8.05

SMILES: COC(=O)N[C@H](C(=O)N[C@@H](Cc1ccc(C#Cc2ccc(N3CC4CCC(C3)N4C(=O)[C@@H]3CCCO3)nc2)cc1)[C@@H](O)CN(Cc1c(F)cc(-c2cnc(F)c(F)c2)cc1F)NC(=O)[C@@H](NC(=O)OC)C(C)(C)C)C(C)(C)C [Example 64, Methyl ((5S,8S,9S,14S)-5-(tert-butyl)-11-(4-(5,6-difluoropyridin-3-yl)-2,6-difluorobenzyl)-9-hydroxy-15,15-dimethyl-3,6,13-trioxo-8-(4-((6-(8-((S)-tetrahydrofuran-2-carbonyl)-3,8-diazabicyclo[3.2.1]octan-3-yl)pyridin-3-yl)ethynyl)benzyl)-2-oxa-4,7,11,12-tetraazahexadecan-14-yl)carbamate]
- pEC50 [1]: 8.27

SMILES: COC(=O)N[C@H](C(=O)N[C@@H](Cc1ccc(C#Cc2ccc(N3CC4CC(C3)CN(C3COC3)C4)nc2)cc1)[C@@H](O)CN(Cc1c(F)cc(-c2cnn(C(F)F)c2)cc1F)NC(=O)[C@@H](NC(=O)OC)C(C)(C)C(F)(F)F)C(C)(C)C(F)(F)F [Example 65, Methyl ((5S,8S,9S,14S)-11-(4-(1-(difluoromethyl)-1H-pyrazol-4-yl)-2,6-difluorobenzyl)-16,16,16-trifluoro-9-hydroxy-15,15-dimethyl-8-(4-((6-(7-(oxetan-3-yl)-3,7-diazabicyclo[3.3.1]nonan-3-yl)pyridin-3-yl)ethynyl)benzyl)-3,6,13-trioxo-5-(1,1,1-trifluoro-2-methylpropan-2-yl)-2-oxa-4,7,11,12-tetraazahexadecan-14-yl)carbamate]
- pEC50: 8.11

SMILES: COC(=O)N[C@H](C(=O)N[C@@H](Cc1ccc(C#Cc2ccc(N3CC4CC(CN(c5ccccn5)C4)C3)nc2)cc1)[C@@H](O)CN(Cc1c(F)cc(-c2cnn(C(F)F)c2)cc1F)NC(=O)[C@@H](NC(=O)OC)C(C)(C)C(F)(F)F)C(C)(C)C(F)(F)F [Example 66, Methyl ((5S,8S,9S,14S)-11-(4-(1-(difluoromethyl)-1H-pyrazol-4-yl)-2,6-difluorobenzyl)-16,16,16-trifluoro-9-hydroxy-15,15-dimethyl-3,6,13-trioxo-8-(4-((6-(7-(pyridin-2-yl)-3,7-diazabicyclo[3.3.1]nonan-3-yl)pyridin-3-yl)ethynyl)benzyl)-5-(1,1,1-trifluoro-2-methylpropan-2-yl)-2-oxa-4,7,11,12-tetraazahexadecan-14-yl)carbamate]
- pEC50 [1]: 7.84

SMILES: COC(=O)N[C@H](C(=O)NN(Cc1c(F)cc(-c2nnc(C3CC3)s2)cc1F)C[C@H](O)[C@H](Cc1ccc(C#Cc2ccc(N3CC4CCC(C3)N4C3COC3)nc2)cc1)NC(=O)[C@@H](NC(=O)OC)C(C)(C)C(F)(F)F)C(C)(C)C [Example 76, Methyl ((5S,8S,9S,14S)-11-(4-(5-cyclopropyl-1,3,4-thiadiazol-2-yl)-2,6-difluorobenzyl)-9-hydroxy-15,15-dimethyl-8-(4-((6-(8-(oxetan-3-yl)-3,8-diazabicyclo[3.2.1]octan-3-yl)pyridin-3-yl)ethynyl)benzyl)-3,6,13-trioxo-5-(1,1,1-trifluoro-2-methylpropan-2-yl)-2-oxa-4,7,11,12-tetraazahexadecan-14-yl)carbamate]
- pEC50 [1]: 8.45
